Laboratory results taken from the kinase profiling compilation of Christmann-Franck et al. (2016).

Assays:
Assay in all cases: KINOMEscan competition binding
Settings in all cases: compound 1.0 µM
[1] = molecular target: DYRK1A (human) (UniProt Q13627)
[2] = molecular target: RPS6KA4 KD2 (human) (UniProt O75676)
[3] = molecular target: ERBB2 (human) (UniProt P04626)
[4] = molecular target: CSNK1G1 (human) (UniProt Q9HCP0)
[5] = molecular target: EPHA7 (human) (UniProt Q15375)
[6] = molecular target: INSR (human) (UniProt P06213)
[7] = molecular target: ULK3 (human) (UniProt Q6PHR2)
ULK3 (human), sequence (Q6PHR2 whole entry, looked up): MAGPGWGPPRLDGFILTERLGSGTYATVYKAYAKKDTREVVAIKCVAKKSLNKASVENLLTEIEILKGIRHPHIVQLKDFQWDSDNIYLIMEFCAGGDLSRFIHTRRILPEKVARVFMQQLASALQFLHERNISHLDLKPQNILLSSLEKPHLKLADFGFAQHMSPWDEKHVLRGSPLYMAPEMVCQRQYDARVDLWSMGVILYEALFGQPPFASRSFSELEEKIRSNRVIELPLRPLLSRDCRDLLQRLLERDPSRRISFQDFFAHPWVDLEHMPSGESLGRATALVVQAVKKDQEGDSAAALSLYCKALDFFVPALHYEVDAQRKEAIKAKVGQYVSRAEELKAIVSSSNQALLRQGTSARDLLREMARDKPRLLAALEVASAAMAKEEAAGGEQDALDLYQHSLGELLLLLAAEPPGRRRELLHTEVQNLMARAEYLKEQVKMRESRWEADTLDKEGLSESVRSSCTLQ

[8] = molecular target: TNK1 (human) (UniProt Q13470)
[9] = molecular target: MAP3K5 (human) (UniProt Q99683)
[10] = molecular target: GSK3A (human) (UniProt P49840)
[11] = molecular target: BRAF (human) (UniProt P15056)
[12] = molecular target: ACVRL1 (human) (UniProt P37023)
[13] = molecular target: CLK2 (human) (UniProt P49760)
[14] = molecular target: ACVR1B (human) (UniProt P36896)
[15] = molecular target: RPS6KA4 KD1 (human) (UniProt O75676)
RPS6KA4 KD1 (human), sequence (O75676 whole entry, looked up): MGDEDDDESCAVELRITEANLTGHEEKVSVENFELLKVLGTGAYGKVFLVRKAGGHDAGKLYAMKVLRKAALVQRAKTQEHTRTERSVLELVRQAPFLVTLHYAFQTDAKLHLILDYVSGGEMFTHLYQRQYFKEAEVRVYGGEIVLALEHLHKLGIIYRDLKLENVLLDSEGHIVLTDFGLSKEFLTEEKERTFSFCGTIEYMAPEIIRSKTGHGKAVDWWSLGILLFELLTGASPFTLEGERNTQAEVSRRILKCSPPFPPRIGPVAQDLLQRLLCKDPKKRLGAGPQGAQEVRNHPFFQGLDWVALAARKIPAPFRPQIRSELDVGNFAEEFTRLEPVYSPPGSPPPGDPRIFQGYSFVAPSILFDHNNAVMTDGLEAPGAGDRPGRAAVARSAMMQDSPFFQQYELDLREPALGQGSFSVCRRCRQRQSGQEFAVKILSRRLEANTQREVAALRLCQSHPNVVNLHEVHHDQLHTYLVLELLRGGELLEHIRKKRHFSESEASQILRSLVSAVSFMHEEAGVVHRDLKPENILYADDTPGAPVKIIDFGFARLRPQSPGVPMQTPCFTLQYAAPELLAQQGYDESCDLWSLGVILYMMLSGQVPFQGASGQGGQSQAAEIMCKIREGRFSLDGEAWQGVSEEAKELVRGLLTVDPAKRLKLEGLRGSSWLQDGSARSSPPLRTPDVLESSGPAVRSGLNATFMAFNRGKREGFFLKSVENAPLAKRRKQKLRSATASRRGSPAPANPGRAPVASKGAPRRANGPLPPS

[16] = molecular target: ADCK3 (human) (UniProt Q8NI60)
[17] = molecular target: FES (human) (UniProt P07332)
[18] = molecular target: MAPK14 (human) (UniProt Q16539)
MAPK14 (human), sequence (Q16539 whole entry, looked up): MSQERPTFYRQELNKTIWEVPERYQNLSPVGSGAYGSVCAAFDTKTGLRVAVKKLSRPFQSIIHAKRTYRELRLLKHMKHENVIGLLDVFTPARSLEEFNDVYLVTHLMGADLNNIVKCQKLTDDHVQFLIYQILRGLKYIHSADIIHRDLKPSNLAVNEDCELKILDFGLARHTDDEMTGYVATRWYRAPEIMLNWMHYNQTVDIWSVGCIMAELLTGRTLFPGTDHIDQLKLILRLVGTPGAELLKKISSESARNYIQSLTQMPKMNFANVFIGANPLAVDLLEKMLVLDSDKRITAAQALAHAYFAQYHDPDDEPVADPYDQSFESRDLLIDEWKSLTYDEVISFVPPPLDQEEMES

[19] = molecular target: CAMK1D (human) (UniProt Q8IU85)
CAMK1D (human), sequence (Q8IU85 whole entry, looked up): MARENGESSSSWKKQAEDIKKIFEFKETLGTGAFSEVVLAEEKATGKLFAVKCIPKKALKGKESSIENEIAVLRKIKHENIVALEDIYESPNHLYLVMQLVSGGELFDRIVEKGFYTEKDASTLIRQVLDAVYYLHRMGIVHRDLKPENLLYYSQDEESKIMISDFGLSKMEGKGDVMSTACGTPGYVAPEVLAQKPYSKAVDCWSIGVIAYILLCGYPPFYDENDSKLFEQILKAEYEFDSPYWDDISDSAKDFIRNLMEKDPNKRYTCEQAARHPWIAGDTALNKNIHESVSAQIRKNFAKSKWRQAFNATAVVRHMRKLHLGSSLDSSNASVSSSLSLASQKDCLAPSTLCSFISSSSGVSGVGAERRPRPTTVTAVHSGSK

[20] = molecular target: PTK2B (human) (UniProt Q14289)
PTK2B (human), sequence (Q14289 whole entry, looked up): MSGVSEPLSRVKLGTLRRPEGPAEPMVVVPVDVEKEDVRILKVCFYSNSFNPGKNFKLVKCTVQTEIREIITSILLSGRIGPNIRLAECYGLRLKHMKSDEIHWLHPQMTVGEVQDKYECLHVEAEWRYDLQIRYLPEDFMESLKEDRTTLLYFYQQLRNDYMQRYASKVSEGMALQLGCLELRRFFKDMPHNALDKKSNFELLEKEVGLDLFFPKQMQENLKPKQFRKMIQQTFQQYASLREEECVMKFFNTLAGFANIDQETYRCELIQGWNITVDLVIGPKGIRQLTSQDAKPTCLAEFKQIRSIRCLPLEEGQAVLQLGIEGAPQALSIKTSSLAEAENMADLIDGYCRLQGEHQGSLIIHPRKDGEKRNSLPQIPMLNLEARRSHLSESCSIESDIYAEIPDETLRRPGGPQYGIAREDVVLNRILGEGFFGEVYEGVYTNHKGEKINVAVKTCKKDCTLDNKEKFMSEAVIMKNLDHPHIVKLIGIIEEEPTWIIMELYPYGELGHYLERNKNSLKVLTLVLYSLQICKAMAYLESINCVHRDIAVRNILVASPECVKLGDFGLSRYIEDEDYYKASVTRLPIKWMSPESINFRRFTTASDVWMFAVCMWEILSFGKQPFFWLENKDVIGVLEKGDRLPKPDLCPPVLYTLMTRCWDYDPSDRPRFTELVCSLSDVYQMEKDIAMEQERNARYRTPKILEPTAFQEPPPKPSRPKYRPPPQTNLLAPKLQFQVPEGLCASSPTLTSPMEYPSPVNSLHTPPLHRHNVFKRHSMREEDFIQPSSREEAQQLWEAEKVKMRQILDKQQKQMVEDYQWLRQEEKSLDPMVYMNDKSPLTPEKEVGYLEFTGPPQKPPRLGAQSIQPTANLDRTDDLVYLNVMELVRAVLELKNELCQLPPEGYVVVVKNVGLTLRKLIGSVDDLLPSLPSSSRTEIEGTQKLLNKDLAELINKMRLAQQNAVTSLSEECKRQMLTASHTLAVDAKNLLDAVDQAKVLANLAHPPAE

[21] = molecular target: TSSK1B (human) (UniProt Q9BXA7)
[22] = molecular target: FLT3 (human) (UniProt P36888)
[23] = molecular target: MAP3K12 (human) (UniProt Q12852)
[24] = molecular target: CDKL5 (human) (UniProt O76039)
[25] = molecular target: SIK2 (human) (UniProt Q9H0K1)
[26] = molecular target: ULK1 (human) (UniProt O75385)
ULK1 (human), sequence (O75385 whole entry, looked up): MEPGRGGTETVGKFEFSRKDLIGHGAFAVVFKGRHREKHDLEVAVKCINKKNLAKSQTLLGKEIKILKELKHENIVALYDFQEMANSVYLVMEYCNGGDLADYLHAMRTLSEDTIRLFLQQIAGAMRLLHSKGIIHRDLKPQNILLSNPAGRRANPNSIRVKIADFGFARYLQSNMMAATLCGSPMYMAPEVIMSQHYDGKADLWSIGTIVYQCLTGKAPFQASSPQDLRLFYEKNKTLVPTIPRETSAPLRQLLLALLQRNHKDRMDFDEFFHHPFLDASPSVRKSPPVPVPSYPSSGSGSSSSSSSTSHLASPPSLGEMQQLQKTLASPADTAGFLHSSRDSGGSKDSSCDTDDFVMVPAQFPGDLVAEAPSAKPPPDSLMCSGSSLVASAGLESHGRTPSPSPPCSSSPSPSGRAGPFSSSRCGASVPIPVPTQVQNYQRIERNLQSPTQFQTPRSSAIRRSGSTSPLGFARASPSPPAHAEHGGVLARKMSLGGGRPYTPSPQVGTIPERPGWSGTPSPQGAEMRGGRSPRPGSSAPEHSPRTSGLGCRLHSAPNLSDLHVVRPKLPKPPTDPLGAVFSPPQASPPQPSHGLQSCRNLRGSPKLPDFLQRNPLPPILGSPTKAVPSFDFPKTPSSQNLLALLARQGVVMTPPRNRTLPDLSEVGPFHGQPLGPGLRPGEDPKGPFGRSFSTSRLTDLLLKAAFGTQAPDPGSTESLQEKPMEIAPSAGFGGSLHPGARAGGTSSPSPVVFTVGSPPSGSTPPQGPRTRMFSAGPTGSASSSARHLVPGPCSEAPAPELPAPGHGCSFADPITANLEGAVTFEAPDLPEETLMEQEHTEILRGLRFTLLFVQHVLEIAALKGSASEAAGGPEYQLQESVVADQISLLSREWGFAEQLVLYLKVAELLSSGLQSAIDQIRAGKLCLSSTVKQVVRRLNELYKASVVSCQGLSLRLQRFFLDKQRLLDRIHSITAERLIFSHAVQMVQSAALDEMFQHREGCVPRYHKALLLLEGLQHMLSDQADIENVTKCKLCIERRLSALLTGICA

[27] = molecular target: MAPK13 (human) (UniProt O15264)
[28] = molecular target: SLK (human) (UniProt Q9H2G2)
[29] = tested on: ABL1 (human), P00519 [E255K]
[30] = molecular target: MYLK3 (human) (UniProt Q32MK0)
[31] = molecular target: PRKG1 (human) (UniProt Q13976)
[32] = tested on: ABL1 (human), P00519 [F317I]
[33] = molecular target: MAP2K2 (human) (UniProt P36507)
[34] = molecular target: ALK (human) (UniProt Q9UM73)
[35] = molecular target: KIT (human) (UniProt P10721)
[36] = molecular target: RPS6KA6 KD1 (human) (UniProt Q9UK32)
[37] = molecular target: TIE1 (human) (UniProt P35590)
[38] = molecular target: ERN1 (human) (UniProt O75460)
ERN1 (human), sequence (O75460 whole entry, looked up): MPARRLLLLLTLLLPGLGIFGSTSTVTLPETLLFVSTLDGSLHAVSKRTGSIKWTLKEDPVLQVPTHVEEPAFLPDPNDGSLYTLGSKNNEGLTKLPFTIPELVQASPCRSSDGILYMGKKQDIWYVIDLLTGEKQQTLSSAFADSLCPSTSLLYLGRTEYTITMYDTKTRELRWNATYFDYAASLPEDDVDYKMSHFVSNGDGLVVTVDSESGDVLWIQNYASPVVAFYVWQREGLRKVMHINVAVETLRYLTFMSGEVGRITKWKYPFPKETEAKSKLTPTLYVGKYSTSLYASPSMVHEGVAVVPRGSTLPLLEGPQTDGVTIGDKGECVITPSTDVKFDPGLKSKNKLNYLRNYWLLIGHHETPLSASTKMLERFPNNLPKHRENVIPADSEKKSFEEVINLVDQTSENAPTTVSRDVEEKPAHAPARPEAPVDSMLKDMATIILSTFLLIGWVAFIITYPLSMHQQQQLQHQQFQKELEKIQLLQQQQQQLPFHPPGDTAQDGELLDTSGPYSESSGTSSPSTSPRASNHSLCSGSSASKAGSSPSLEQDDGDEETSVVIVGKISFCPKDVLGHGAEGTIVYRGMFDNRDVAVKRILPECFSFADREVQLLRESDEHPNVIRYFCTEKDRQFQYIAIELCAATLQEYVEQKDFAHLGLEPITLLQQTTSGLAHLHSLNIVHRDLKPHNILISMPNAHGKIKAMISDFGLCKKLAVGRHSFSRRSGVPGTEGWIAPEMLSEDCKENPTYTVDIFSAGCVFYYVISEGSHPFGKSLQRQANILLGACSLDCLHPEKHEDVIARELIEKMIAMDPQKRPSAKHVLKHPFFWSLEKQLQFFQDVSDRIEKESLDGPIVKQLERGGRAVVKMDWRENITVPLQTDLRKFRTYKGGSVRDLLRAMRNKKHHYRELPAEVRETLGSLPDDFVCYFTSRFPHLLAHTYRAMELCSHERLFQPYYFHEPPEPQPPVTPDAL

[39] = molecular target: CDK2 (human) (UniProt P24941)
[40] = molecular target: GRK1 (human) (UniProt Q15835)

RPS6KA4 KD2 (human), sequence (O75676 whole entry, looked up): as the sequence (O75676 whole entry, looked up) above

Structure (SMILES): Nc1cc(C(F)(F)F)c(-c2cc(N3CCOCC3)nc(N3CCOCC3)n2)cn1
- inhibition of binding [1]: 11%
- inhibition of binding [2]: 0%
- inhibition of binding [3]: 24%
- inhibition of binding [4]: 25%
- inhibition of binding [5]: 0%
- inhibition of binding [6]: 30%
- inhibition of binding [7]: 17%
- inhibition of binding [8]: 10%
- inhibition of binding [9]: 1%
- inhibition of binding [10]: 42%
- inhibition of binding [11]: 18%
- inhibition of binding [12]: 38%
- inhibition of binding [13]: 0%
- inhibition of binding [14]: 3%
- inhibition of binding [15]: 4%
- inhibition of binding [16]: 4%
- inhibition of binding [17]: 0%
- inhibition of binding [18]: 0%
- inhibition of binding [19]: 0%
- inhibition of binding [20]: 0%
- inhibition of binding [21]: 5%
- inhibition of binding [22]: 8%
- inhibition of binding [23]: 0%
- inhibition of binding [24]: 50%
- inhibition of binding [25]: 0%
- inhibition of binding [26]: 0%
- inhibition of binding [27]: 0%
- inhibition of binding [28]: 0%
- inhibition of binding [29]: 0%
- inhibition of binding [30]: 0%
- inhibition of binding [31]: 0%
- inhibition of binding [32]: 41%
- inhibition of binding [33]: 0%
- inhibition of binding [34]: 6%
- inhibition of binding [35]: 0%
- inhibition of binding [36]: 0%
- inhibition of binding [37]: 0%
- inhibition of binding [38]: 5%
- inhibition of binding [39]: 30%
- inhibition of binding [40]: 0%
